Source: the supplement of paper PMC4862054

Legend:
Assay in all cases: normalised response (% of control), CellTiter-Glo; higher = more viable cells (100 = DMSO, 0 = benzethonium chloride kill control)
Settings in all cases: incubation time: 72 h
[1] = test system: CAL-120
Outline: (§1)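 In 384-well plates holding compound at 5 concentrations in 10-fold steps over a 10,000-fold range specific to each compound, breast cancer cell lines were seeded as 20 µl suspension and incubated 72 h. CellTox Green fluorescence was measured at 485/520 nm, after which CellTiter-Glo luminescence was measured following 10 min at room temperature. Plate signals were normalised to 0.1 % DMSO (100) and a positive kill control (0), and each value is the normalised signal at a single concentration.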

[2] = test system: CAL-148
Outline: as §1

[3] = test system: CAL-51
Outline: as §1

[4] = test system: CAL-85-1
Outline: as §1

[5] = test system: DU-4475
Outline: as §1

[6] = test system: HCC1599
Outline: as §1

[7] = test system: HCC1937
Outline: as §1

[8] = test system: Hs578T
Outline: as §1

[9] = test system: MCF-10A
Outline: as §1

[10] = test system: MDA-MB-231
Outline: as §1

[11] = test system: MDA-MB-436
Outline: as §1

[12] = test system: MDA-MB-453
Outline: as §1

[13] = test system: MFM-223
Outline: as §1

[14] = test system: SK-BR-3
Outline: as §1

SMILES	normalised response [1] [%]	normalised response [2] [%]	normalised response [3] [%]	normalised response [4] [%]	normalised response [5] [%]	normalised response [6] [%]	normalised response [7] [%]	normalised response [8] [%]	normalised response [9] [%]	normalised response [10] [%]	normalised response [11] [%]	normalised response [12] [%]	normalised response [13] [%]	normalised response [14] [%]
CO[C@H]1/C=C\C=C(/C)C(=O)NC2=CC(=O)C(NCCN(C)C)=C(C[C@@H](C)C[C@H](OC)[C@H](O)[C@@H](C)/C=C(\C)[C@@H]1OC(N)=O)C2=O [Alvespimycin] (100 nM)	52	23.9	26.7	23	0.07	76.9	36.5	41.8	13.5	26.5	46.6	25.8	39.9	44.1
CCC1(c2ccc(N)cc2)CCC(=O)NC1=O (centres undefined) [Aminoglutethimide] (1000 nM)	105	96.2	80.4	103	101	115	96.8	101	101	105	102	100	101	95.6
Cn1c(CCCC(=O)O)nc2cc(N(CCCl)CCCl)ccc21 [Bendamustine] (1000 nM)	104	110	112	101	101	105	95.7	106	96.9	106	101	117	111	107
C=C(c1ccc(C(=O)O)cc1)c1cc2c(cc1C)C(C)(C)CCC2(C)C [Bexarotene] (1000 nM)	104	86.4	111	102	103	57.6	102	94.9	81.8	106	99.4	103	102	80
COc1cc2nccc(Oc3ccc(NC(=O)C4(C(=O)Nc5ccc(F)cc5)CC4)cc3)c2cc1OC [Cabozantinib] (100 nM)	101	98.1	109	93.6	99.6	117	95.6	103	88.6	90.5	99.2	106	98.7	104
CN(C)/N=N/c1[nH]cnc1C(N)=O [Dacarbazine] (1000 nM)	96	97.8	91.2	100	101	111	101	105	104	105	101	104	105	102
Cc1ccc(-n2nc(C(C)(C)C)cc2NC(=O)Nc2ccc(OCCN3CCOCC3)c3ccccc23)cc1 [Doramapimod] (1000 nM)	101	80.3	111	121	96	108	95.1	97	89.1	83.7	105	85.8	87.6	80.8
C#Cc1cccc(Nc2ncnc3cc(OCCOC)c(OCCOC)cc23)c1 [Erlotinib] (1000 nM)	93.5	82.1	80.3	60.2	104	100	93.4	99.8	37.1	102	99.9	107	100	97.5
COc1cc([C@@H]2c3cc4c(cc3[C@@H](O[C@@H]3O[C@@H]5CO[C@@H](C)O[C@H]5[C@H](O)[C@H]3O)[C@H]3COC(=O)[C@H]23)OCO4)cc(OC)c1O [Etoposide] (1000 nM)	93.3	69	65.7	101	56.8	63.5	94	91	99.8	94.7	67	153	114	67.7
O=P1(NCCCl)OCCCN1CCCl (centres undefined) [Ifosfamide] (1000 nM)	91.4	89	105	96.8	90.6	96.1	97.7	97.8	95.6	88.3	91.3	92.5	92.5	92
CC1(C)NC(=O)N(c2ccc([N+](=O)[O-])c(C(F)(F)F)c2)C1=O [Nilutamide] (1000 nM)	102	109	82.4	98.5	105	110	103	113	111	102	106	102	107	110
Cc1ccc(C(=O)Nc2ccc(CN3CCN(C)CC3)c(C(F)(F)F)c2)cc1C#Cc1cnc2cccnn12 [Ponatinib] (100 nM)	86.3	99.6	112	105	99.3	117	97.2	96.5	103	91.4	97	110	54.5	107
Cn1c(Nc2ccc(C(F)(F)F)cc2)nc2cc(Oc3ccnc(-c4ncc(C(F)(F)F)[nH]4)c3)ccc21 [RAF265] (100 nM)	82.9	97.1	77.8	98.5	95.3	120	91.6	82.5	91.4	104	89.8	110	96.5	92
CNCc1ccc(-c2[nH]c3cc(F)cc4c3c2CCNC4=O)cc1 [Rucaparib] (1000 nM)	105	95.3	106	110	97.6	94.4	105	107	101	99	88.8	100	96.3	86.7
N[C@@H](CSC(c1ccccc1)(c1ccccc1)c1ccccc1)C(=O)O [S-trityl-L-cysteine] (4000 nM)	102	97.6	87.3	99.8	91.1	109	97.3	99.2	96.3	105	100	103	101	94.3
CN(N=O)C(=O)N[C@@H](C=O)[C@@H](O)[C@H](O)[C@H](O)CO [Streptozocin] (1000 nM)	105	100	107	104	100	107	108	109	109	106	98.3	109	103	100
O=C1CCC(N2C(=O)c3ccccc3C2=O)C(=O)N1 (centres undefined) [Thalidomide] (1000 nM)	101	96	120	94.5	100	114	98	107	102	95.8	99.1	102	93.8	99.4
CN[C@@H]1C[C@H]2O[C@@](C)([C@@H]1OC)n1c3ccccc3c3c4c(c5c6ccccc6n2c5c31)C(=O)N[C@H]4O [UCN-01] (1000 nM)	20.5	75.2	11.8	23.2	7.33	8.97	32	11.7	1.2	7.91	27.5	34	30.2	22.3
Clc1ccc(Nc2nnc(Cc3ccncc3)c3ccccc23)cc1 [Vatalanib] (1000 nM)	99.2	98.7	94.4	97.7	106	124	103	100	103	105	106	95.4	104	104
CCC1=C[C@@H]2CN(C1)Cc1c([nH]c3ccccc13)[C@@](C(=O)OC)(c1cc3c(cc1OC)N(C)[C@H]1[C@@](O)(C(=O)OC)[C@H](OC(C)=O)[C@]4(CC)C=CCN5CC[C@]31[C@@H]54)C2 [Vinorelbine] (1000 nM)	66.9	43.2	26.7	39	69.9	26	73.8	35.5	63	43.5	24.7	56.1	39.3	16.9
Oc1nc(-c2ccc(C(F)(F)F)cc2)nc2c1CSCC2 [XAV-939] (1000 nM)	92	89.8	89.3	105	92.8	104	91.1	92.3	88.8	76.8	96.7	91.4	96.1	84.4
